Source: publication PMC2671622 (Journal of Experimental Botany, 2009)

Each molecule was assayed against truncated recombinant AtGABA-T (no-target GABA-T) (Arabidopsis thaliana, UniProt Q94CE5) (assay: coupled SSADH assay, NADH at […] nm).
Assay type: biochemical

truncated recombinant AtGABA-T (no-target GABA-T), sequence (Q94CE5 37-504): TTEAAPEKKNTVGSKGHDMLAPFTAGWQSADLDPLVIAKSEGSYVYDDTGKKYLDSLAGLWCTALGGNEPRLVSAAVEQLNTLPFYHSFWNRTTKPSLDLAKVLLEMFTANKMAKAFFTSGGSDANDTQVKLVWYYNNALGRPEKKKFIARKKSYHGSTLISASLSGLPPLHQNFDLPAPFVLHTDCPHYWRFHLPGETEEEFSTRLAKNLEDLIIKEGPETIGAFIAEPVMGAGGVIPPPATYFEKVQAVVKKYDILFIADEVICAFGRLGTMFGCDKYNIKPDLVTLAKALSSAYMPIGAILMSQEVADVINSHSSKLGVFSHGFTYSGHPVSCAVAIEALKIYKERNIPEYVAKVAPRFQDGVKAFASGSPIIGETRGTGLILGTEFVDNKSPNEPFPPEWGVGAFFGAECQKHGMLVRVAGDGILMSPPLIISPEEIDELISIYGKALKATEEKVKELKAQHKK

SMILES	Ki
NCC(=O)O [Glycine]	3700 ± 460 µM
NCCC[C@H](N)C(=O)O [Ornithine]	460 ± 120 µM
C=CC(N)CCC(=O)O (stereo not shown) [Vigabatrin]	620 ± 160 µM
NCCC(=O)O [β-Alanine]	550 ± 130 µM
